Data reported in patent publication US20070010484A1, “Method for treating or inhibiting the effects of injuries or diseases that result in neuronal degeneration and method for promoting neurogenesis” (YEDA RESEARCH AND DEVELOPMENT CO. LTD., priority 2003, published 2007).

What was measured:
PC12 cells [1] = assay: Neurite outgrowth assay in NGF-stimulated PC12 cells; assay type: cell-based, rat; settings: PC12 cells, NGF 10 ng/ml
Protocol: PC12 cell line: Rat pheochromocytoma (PC12) cells were cultured in DMEM containing 8% horse serum and either 8% FCS (culture medium) or 1% FCS (differentiation medium), and antibiotics. For assays of neurite outgrowth, the cells were plated (10^5 cell/well) on 13-mm glass coverslips, precoated with collagen (500 μg/ml) in 24-well plates. Neurite outgrowth assays: PC12 cells were cultured for 24-72 h while being stimulated with 10 ng/ml NGF, with or without CSPG-DSs. Cell morphology was visualized under a phase-contrast microscope and neurite lengths were measured using ImagePro. At least 200 cells were measured for each condition.

[2] = test system: retinal ganglion cells (RGCs); assay: Experimental autoimmune uveitis (EAU), RGC survival; assay type: in vivo; settings: R16-immunized Lewis rats, i.p. on days 3, 6, 9, 12 and 17; counted 3 weeks after immunization; mean±SD
Protocol: Induction of experimental autoimmune uveitis. To induce experimental autoimmune uveitis (EAU), Lewis rats were immunized with R16 (30 μg), a peptide derived from an ocular antigen IRBP emulsified in CFA containing 2.5 mg/ml M. tuberculosis. A total volume of 100 μl was injected s.c. into each rat at the root of the tail. Rats were then divided into three groups. On days 3, 6, 9, 12 and 17 after immunization the rats in the first group were injected i.p. with CSPG-DS (15 μg/rat), and rats in the second group were injected i.p. with methylprednisolone (MP. 30 mg/kg; Solu-Medrol, 125 mg/ml, Pharmacia & Upjohn, Puurs, Belgium). Rats in third group were left untreated.

PC12 cells [3] = assay: LPA-induced neurite retraction in differentiated PC12 cells; assay type: cell-based, rat; settings: NGF-differentiated PC12 cells, LPA 1 μg/ml, 20 min
Protocol: PC12 cell line: Rat pheochromocytoma (PC12) cells were cultured in DMEM containing 8% horse serum and either 8% FCS (culture medium) or 1% FCS (differentiation medium), and antibiotics. For assays of neurite outgrowth, the cells were plated (10^5 cell/well) on 13-mm glass coverslips, precoated with collagen (500 μg/ml) in 24-well plates. Treatment of PC12 cells with lysophosphatidic acid (LPA). PC12 cells were placed and were differentiated for 3 days in the presence of 100 ng/ml NGF, in collagen-precoated culture dishes (Corning). […] The cells were then fixed with 4% paraformaldehyde (PFA) and analyzed by Nomarski microscopy. The longest neurite of each cell was measured and the results are expressed as their mean±SEM.

Compound: CC(=O)N[C@H]1C(O)O[C@H](CO)[C@H](O)[C@@H]1O[C@@H]1OC(C(=O)O)=C[C@H](O)[C@H]1O (stereo partly drawn) [Di-0S, 2-acetamido-2-deoxy-3-O-(β-D-gluco-4-enepyranosyluronic acid)-D-galactose]
- effect on neurite outgrowth (PC12 cells [1]): no effect

Compound: C[C@H]1C[C@@H]2[C@H]([C@@H](O)C[C@@]3(C)[C@H]2CC[C@]3(O)C(=O)COC(=O)CCC(=O)[O-])[C@@]2(C)C=CC(=O)C=C12.[Na+] [MP, reference compound]
- RGC loss relative to normal rats [2]: 59±1.6%

Compound: lysophosphatidic acid [LPA, reference compound]
- neurite collapse by LPA alone (PC12 cells [3]): induced neurite collapse
